Usually EC50 stands for the concentration at which the effect is half-maximal. By Emax is commonly meant the size of the effect at its maximum, as opposed to the concentration needed.

From US11149056B2, “C7 substituted oxysterols and methods of use thereof” (Sage Therapeutics, Inc., priority 2016, dated 2021) come the findings set out here.

One experiment has as its target NMDA receptor 2B (Homo sapiens (Human), UniProt Q05586+Q13224). The experiment is described as follows: Automated patch-clamp (QPatch HTX), NMDA receptor 2B subtype. In kind it is cell-based. Particulars: for Emax: read-out: AVG_ EMAX 2B %. How it is done:
(§1) Automated Patch-Clamp System (OPatch HTX)
(§2) In general, cells will be passaged at a confluence of about 80% to […]. For electrophysiological measurements cells will be harvested at a confluence of about 80% to 90% from sterile culture flasks containing culture complete medium. Cells will be transferred as suspension in PBS to the QPatch 16X or QPatch HTX system to; the centrifuge/washer directly. Standard Laboratory Conditions; Cells will be incubated at 37° C. in a humidified atmosphere with 5% CO2 (rel. humidity about 95%). Culture media: The cells will be continuously maintained in and passaged in sterile culture flasks containing a 1:1 mixture of Dulbecco's modified eagle medium and nutrient mixture F-12 (D-MEM/F-12 1×, liquid, with L-Glutamine) supplemented with 10% fetal bovine serum, 1% Penicillin/Streptomycin solution, and 50 μM AP-5 blocker. Antibiotics: The complete medium as indicated above is supplemented with 100 μg/mL hygromycin, 15 μg/mL blasticidin and 1 μg/mL puromycin. Induction of Expression-. 2.5 μg/mL tetracycline is added 24 h before start of experiments. Dose Formulation Dose levels are in terms of test compounds, as supplied. Vehicle will be added to achieve a stock concentration of 10 mM (storage at −10° C. to −30° C.). A further stock solutions of 1.0 mM will be prepared in DMSO. Details of stock solution usage (thawing, dose formulations) will be documented in the raw data. The time period of stock solution usage will be detailed in the report. Test Compound Concentrations Dose levels, are in terms of test compounds, as supplied. Vehicle will be added to achieve a stock concentration of 10 mM (storage at −10° C. to −30° C.). A further stock solutions of 1.0 mM will be prepared in DMSO. Details of stock solution usage (thawing, dose formulations) will be documented in the raw data. The time period of stock solution usage will be detailed in the report. One test concentration of 1.0 μM will be tested. All test solutions will be prepared by diluting the stock solutions with either Mg-free bath solution only or Mg-free bath solution containing NMDA (300 μM) and glycine (8.0 μM) shortly prior to the electrophysiological experiments and kept at room temperature (19° C. to 30° C.) when in use. 0.1% DMSO will be used as vehicle. Frequency of preparation. For each test concentration, fresh solutions of test compounds will be prepared every day. Stability of dose formulation: All preparation times will be documented in the raw data. Any observations regarding instability of test compounds will be mentioned in the raw data. Storage of dose formulation: On the day of experimentation dose formulations will be maintained at room temperature (19° C. to 30° C.) when in use, Bath Solutions For preparing the experiments and for formation of the giga-ohm-seal, the following standard bath solution will be used: Sodium Chloride: 137 mM; Potassium Chloride: 4 mM; Calcium Chloride: 1.8 mM; Magnesium Chloride: 1 mM; HEPES: 10 mM; D-Glucose: 10 mM; Cremophor: 0.02%; pH (NaOH): 7.4
The 1× intracellular solution will be thawed every day out of a frozen 1× intracellular solution, which has been prepared prior to the experimental start of the present study, aliquoted and stored at −10° C. to −30° C. When in use, the 1× intracellular solution will kept at room temperature (19° C. to 30° C.). Remaining 1× intracellular solution will be stored in the fridge (1° C. to 9° C.). The 1× intracellular solution will include the components outlined below: Potassium Chloride: 130 mM; Magnesium Chloride: 1 mM; Mg-ATP: 5 mM; HEPES: 10 mM; EGTA: 5 mM; pH (KOH): 7.2 Cell Treatment For this study, cells will continuously be perfused with NMDA/Glycine, Test Compound or Test Compound/NMDA/Glycin. In every case, at least 30-second prewash steps with a test compound will be performed in between applications. For details see Table A below. Each experiment type will be analyzed in at least n=3 isolated cells. […]
For orientation: In patch-clamp work, channel activity is measured electrically.

For experiment [1], the target named is glutamate-activated channels of the GRIN1/2A subtype (Homo sapiens (Human), UniProt Q05586+Q12879). The experiment is described as follows: Automated patch-clamp (QPatch HTX), NMDA receptor GRIN1/2A in HEK 293 cells. In kind it is cell-based. Particulars: HEK 293 cells stably transfected with GRIN1/2A; 300 μM NMDA + 8 μM glycine; holding potential −80 mV; read-out: AVG_ EC50 2A. How it is done: as §1
In this study, HEK 293 cells stably transfected with glutamate-activated channels of the GRIN1/2A subtype will be used together with submaximal NMDA concentrations (300 μM NMDA, co-application with 8 μM Glycine) to investigate the negative allosteric modulation of the test compounds.
as §2
The 1× bath solution will be prepared by diluting 10× bath solution without Glucose and 100× Glucose solution with water at least every 7 days. Both stock solutions have been prepared prior to the experimental start of the present study and stored at 1° C. to 9° C. (10× bath solution) or −10° C. to −30° (100× Glucose solution). The batch number(s) of the bath solution(s) used in the experiments will be documented in the raw data. When muse, the 1× bath solution will be kept at room temperature (19° C. to 30° C.). When not in use, the 1× bath solution will be stored at 1° C. to 9° C.
After the giga-seal was formed the following Mg-free bath solution will be used: […]

Each structure is given as a SMILES string.

glutamate-activated channels of the GRIN1/2A subtype, sequence (Q12879 23-1464, other chains not shown): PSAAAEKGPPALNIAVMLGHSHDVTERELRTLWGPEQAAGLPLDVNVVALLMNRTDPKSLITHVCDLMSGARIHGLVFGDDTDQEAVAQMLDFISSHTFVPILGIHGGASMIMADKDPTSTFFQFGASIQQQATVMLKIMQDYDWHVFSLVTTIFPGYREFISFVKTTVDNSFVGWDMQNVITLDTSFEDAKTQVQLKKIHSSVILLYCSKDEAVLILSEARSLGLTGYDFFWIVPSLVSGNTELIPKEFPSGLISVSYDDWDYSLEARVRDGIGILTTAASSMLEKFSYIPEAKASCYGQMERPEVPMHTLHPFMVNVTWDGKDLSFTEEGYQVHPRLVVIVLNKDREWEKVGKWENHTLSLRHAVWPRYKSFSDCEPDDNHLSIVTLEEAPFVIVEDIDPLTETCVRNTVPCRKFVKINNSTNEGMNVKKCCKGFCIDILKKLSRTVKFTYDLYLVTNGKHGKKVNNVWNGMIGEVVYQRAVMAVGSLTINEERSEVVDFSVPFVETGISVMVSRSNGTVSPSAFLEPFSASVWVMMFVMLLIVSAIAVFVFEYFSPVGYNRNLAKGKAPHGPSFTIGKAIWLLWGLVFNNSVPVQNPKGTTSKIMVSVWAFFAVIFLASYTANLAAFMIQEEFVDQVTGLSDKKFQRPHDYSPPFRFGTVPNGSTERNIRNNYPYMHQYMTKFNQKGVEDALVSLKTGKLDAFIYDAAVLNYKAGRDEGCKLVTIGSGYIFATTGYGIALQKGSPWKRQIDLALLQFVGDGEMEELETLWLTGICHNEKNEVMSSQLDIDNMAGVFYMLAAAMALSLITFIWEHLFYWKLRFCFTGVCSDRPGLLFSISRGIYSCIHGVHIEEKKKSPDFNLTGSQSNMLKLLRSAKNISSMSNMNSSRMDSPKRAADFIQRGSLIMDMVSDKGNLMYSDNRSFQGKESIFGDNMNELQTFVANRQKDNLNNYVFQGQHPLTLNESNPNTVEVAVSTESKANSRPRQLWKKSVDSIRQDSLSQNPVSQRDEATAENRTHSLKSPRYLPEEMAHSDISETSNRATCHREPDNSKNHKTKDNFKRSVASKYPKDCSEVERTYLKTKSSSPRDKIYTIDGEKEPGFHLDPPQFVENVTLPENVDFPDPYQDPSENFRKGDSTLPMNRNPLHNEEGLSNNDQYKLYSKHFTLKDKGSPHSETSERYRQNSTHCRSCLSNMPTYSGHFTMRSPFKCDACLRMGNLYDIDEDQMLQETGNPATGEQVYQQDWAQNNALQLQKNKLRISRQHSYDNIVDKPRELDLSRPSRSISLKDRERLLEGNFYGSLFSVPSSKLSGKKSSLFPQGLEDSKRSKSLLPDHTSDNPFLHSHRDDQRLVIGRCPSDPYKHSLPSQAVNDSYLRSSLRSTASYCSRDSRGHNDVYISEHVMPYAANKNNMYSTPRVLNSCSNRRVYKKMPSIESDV
NMDA receptor 2B, sequence (Q13224 27-1484, other chains not shown): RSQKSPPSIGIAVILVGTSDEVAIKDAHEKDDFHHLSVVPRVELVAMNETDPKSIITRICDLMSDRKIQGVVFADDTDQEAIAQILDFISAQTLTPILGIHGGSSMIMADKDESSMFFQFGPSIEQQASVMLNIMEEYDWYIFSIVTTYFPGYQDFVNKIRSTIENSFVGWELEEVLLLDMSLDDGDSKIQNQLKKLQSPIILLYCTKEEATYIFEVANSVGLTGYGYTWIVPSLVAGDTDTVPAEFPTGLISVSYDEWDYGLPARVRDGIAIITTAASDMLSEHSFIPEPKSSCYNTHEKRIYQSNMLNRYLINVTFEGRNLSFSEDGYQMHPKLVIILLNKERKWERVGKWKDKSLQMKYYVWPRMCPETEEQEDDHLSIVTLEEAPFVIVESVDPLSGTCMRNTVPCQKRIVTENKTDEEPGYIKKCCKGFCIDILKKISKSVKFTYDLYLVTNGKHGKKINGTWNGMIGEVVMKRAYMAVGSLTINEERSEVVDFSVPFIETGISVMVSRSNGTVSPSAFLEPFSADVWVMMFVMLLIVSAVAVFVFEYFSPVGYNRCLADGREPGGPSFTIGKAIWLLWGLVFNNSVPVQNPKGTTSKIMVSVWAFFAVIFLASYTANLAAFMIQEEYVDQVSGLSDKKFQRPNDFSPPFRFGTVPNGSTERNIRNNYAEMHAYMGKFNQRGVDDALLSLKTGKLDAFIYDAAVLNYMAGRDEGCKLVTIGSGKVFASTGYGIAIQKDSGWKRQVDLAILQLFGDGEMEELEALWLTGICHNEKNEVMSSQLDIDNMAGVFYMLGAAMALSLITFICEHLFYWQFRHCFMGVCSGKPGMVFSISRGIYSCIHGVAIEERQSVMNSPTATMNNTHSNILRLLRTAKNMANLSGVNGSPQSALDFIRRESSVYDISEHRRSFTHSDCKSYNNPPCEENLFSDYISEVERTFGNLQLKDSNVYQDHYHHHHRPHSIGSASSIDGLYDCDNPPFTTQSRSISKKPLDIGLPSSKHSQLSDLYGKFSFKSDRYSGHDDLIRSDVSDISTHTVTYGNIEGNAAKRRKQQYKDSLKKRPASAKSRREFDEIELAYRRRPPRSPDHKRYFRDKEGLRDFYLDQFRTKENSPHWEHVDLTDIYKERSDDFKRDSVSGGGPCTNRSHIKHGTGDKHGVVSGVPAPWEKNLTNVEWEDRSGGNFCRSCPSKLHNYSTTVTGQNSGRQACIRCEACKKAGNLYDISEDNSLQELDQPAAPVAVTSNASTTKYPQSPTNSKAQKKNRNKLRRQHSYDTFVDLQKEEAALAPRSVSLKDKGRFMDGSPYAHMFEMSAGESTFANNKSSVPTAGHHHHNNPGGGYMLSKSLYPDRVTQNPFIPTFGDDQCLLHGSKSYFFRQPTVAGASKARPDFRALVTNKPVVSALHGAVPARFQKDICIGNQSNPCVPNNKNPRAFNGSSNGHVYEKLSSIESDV

In the case of `CC[C@]1(O)CC[C@@]2(C)[C@@H](CC(=O)[C@@H]3[C@@H]2CC[C@]2(C)[C@@H]([C@H](C)CCC(C)(C)O)CC[C@@H]32)C1` [Compound U6410], at NMDA receptor 2B, the EC50 was more than 10000 nM and the Emax amounted to 44%. In experiment [1], the EC50 was more than 10000 nM.

For `C[C@H](CC[C@](C)(O)C(F)(F)F)[C@H]1CC[C@H]2[C@@H]3[C@@H](C)C=C4C[C@@](C)(O)CC[C@]4(C)[C@H]3CC[C@]12C` [Compound U6473], on NMDA receptor 2B, the EC50 was more than 10000 nM and the Emax was determined as 47%.

Consider `CC[C@]1(O)CC[C@@]2(C)C(=C[C@](C)(O)[C@H]3[C@@H]4CC[C@H]([C@H](C)CCC(C)(C)O)[C@@]4(C)CC[C@@H]32)C1` [Compound U6437], for which, at NMDA receptor 2B, the EC50 was 741 nM and the Emax worked out at 213%. In addition, in experiment [1], the EC50 was determined as 1620 nM.

On to `C[C@@H]1C=C2C[C@@](C)(O)CC[C@]2(C)[C@H]2CC[C@]3(C)[C@@H]([C@H](C)CC4(O)CCC(C)(C)CC4)CC[C@H]3[C@H]12` [Compound U6477], for which the EC50 at NMDA receptor 2B came out at 698 nM; in experiment [1], 747 nM. Besides, at NMDA receptor 2B, the Emax was found to be 86%.

As to `CC[C@]1(O)CC[C@@]2(C)C(=C[C@@H](O)[C@H]3[C@@H]4CC[C@H]([C@H](C)CCC(C)(C)O)[C@@]4(C)CC[C@@H]32)C1` [Compound U6450], at NMDA receptor 2B, the EC50 was 66 nM and the Emax was 111%.

Take `CC[C@]1(O)CC[C@@]2(C)C(=C[C@@](C)(O)[C@H]3[C@@H]4CC[C@H]([C@H](C)CCC(C)(C)O)[C@@]4(C)CC[C@@H]32)C1` [Compound U6438]: the EC50 (at NMDA receptor 2B; in experiment [1]) was more than 10000 nM throughout. Further, on NMDA receptor 2B, the Emax is 15%.

`CC[C@]1(O)CC[C@@]2(C)C(=C[C@@H](C)[C@H]3[C@@H]4CC[C@H]([C@H](C)CCC(C)(C)O)[C@@]4(C)CC[C@@H]32)C1` [Compound U6408]: on NMDA receptor 2B, the EC50 worked out at 132 nM and the Emax was 447%. The EC50 in experiment [1] was found to be 230 nM.

As for `CC[C@]1(O)CC[C@@]2(C)C(=CC(=O)[C@H]3C4CC[C@H]([C@H](C)CCC(C)(C)O)[C@@]4(C)CC[C@@H]32)C1` (some centres unmarked) [Compound U6461], at NMDA receptor 2B, the EC50 is more than 10000 nM and the Emax was 53%. In experiment [1], the EC50 was more than 10000 nM.

With `CC[C@]1(O)CC[C@@]2(C)[C@@H](C[C@H](O)[C@@H]3[C@@H]2CC[C@]2(C)[C@@H]([C@H](C)CCC(C)(C)O)CC[C@@H]32)C1` [Compound U6479], the EC50 was 1420 nM on NMDA receptor 2B and more than 10000 nM in experiment [1]. The Emax on NMDA receptor 2B came out at 92%.

Regarding `CC[C@]1(O)CC[C@@]2(C)C(=C[C@H](C)[C@H]3[C@@H]4CC[C@H]([C@H](C)CCC(C)(C)O)[C@@]4(C)CC[C@@H]32)C1` [Compound U6409], at NMDA receptor 2B, the half-maximal effective concentration (EC50) was more than 10000 nM and the Emax amounted to 71%. Besides, in experiment [1], the EC50 was more than 10000 nM.

In the case of `C[C@@H]1C=C2C[C@@](C)(O)CC[C@]2(C)[C@H]2CC[C@]3(C)[C@@H]([C@H](C)CC[C@](C)(O)C(F)(F)F)CC[C@H]3[C@H]12` [Compound U6472], on NMDA receptor 2B, the EC50 turned out to be 22 nM and the Emax was determined as 231%.

On to `C[C@H](CC1(O)CCC(C)(C)CC1)[C@H]1CC[C@H]2[C@@H]3[C@@H](C)C=C4C[C@@](C)(O)CC[C@]4(C)[C@H]3CC[C@]12C` [Compound U6478], for which the figures for the EC50 (at NMDA receptor 2B; in experiment [1]) were 160 nM and 191 nM, respectively. Moreover, the maximal effect (Emax) at NMDA receptor 2B was determined as 127%.

For the molecule `CC[C@]1(O)CC[C@@]2(C)C(=C[C@H](O)[C@H]3[C@@H]4CC[C@H]([C@H](C)CCC(C)(C)O)[C@@]4(C)CC[C@@H]32)C1` [Compound U6429], at NMDA receptor 2B, the EC50 is 667 nM and the Emax stood at 109%.
